How the values were obtained:
[1] = tested on: RAS^V12-MEFs; assay: growth of RAS^V12-MEFs in the presence of HDAC inhibitor; assay type: cell-based, mouse
Description: In order to address the molecular basis for the selective growth-inhibitory activity of HDACi on cancer cells, we performed a functional genetic screen to identify genes that confer resistance to a small-molecule HDACi, named PXD101 (Plumb et al, 2003). Oncogenic RAS^V12-transformed mouse embryonic fibroblasts (RAS^V12-MEFs) were infected with a high complexity retroviral cDNA expression library derived from human K562 erythroleukemia cells and exposed to 1 μM PXD101 for three to […]. HDACi-resistant colonies appeared at low frequency only after infection with cDNA expression library. Integrated proviruses were mobilized from PXD101-resistant colonies by Moloney virus super-infection as described (Jacobs et al, 2000). After second round selection, cDNA inserts were recovered by PCR and identified by DNA sequence analysis. Using this approach, we identified full-length cDNAs encoding the human melanoma tumour antigen PRAME (PReferentially expressed Antigen in MElanoma (Ikeda et al, 1997) and Retinoic Acid Receptor alpha (RARα) as cDNAs that allow continuous proliferation in the presence of 1 μM PXD101. PRAME also rescues these cells from growth arrest by a related HDACi, Trichostatin A at a concentration of 0.1 μM.
The observed effect of PRAME on RAR signalling could result from a physical interaction of PRAME with RAR or from more indirect effects. […]

[2] = tested on: p21 promoter; assay: p21 promoter-luciferase reporter in B16 melanoma cells; assay type: cell-based, mouse; conditions: B16 melanoma cells treated with RA; suppressed by PRAME
Description: (§1) To assess the effect of PRAME knockdown on cell proliferation, we generated stable derivatives of A375 melanoma having shRNA-mediated knockdown of PRAME expression (A375-PRAME^KD). These A375-PRAME^KD cells were cultured for 15 days according to the 3T3 protocol.
Transfections were carried out using the Lipofectamine reagent (Invitrogen), except for Ras^V12 MEFs and Phoenix cells, which were transfected using calcium phosphate precipitation. RA-based reporter assays were done in DMEM with charcoal-stripped FCS (Hyclone). In reporter assays 0.5 μg of reporter-luciferase, 1 ng CMV-renilla, and 3 μg of the indicated DNA were transfected. RA, PXD101, or TSA was added 24 hrs after transfection and assays were performed 48 hrs after transfection. In knock-down experiments, RA or PXD101 was added 72 hrs after transfection and assays were performed 96 hrs after transfection. Luciferase activities shown represent ratios between luciferase and renilla internal control values.

[3] = tested on: F9 mouse embryo carcinoma cells; assay: RA-induced apoptosis in F9 cells (cleaved caspase 3); assay type: cell-based; conditions: 10^−7 M RA; vector controls, not PRAME transfectants
Excerpt: RA induces proliferation arrest, differentiation and apoptosis in many cell types. We therefore asked if PRAME expression affected the RA-induced differentiation of F9 mouse embryo carcinoma cells towards parietal endoderm (Strickland and Mandavi, 1978). F9 cells were stably transfected with PRAME or control vector and individual colonies were selected. In the to absence of RA, the morphology of all transfected cells was the some as that of parental F9 cells. However, F9 cells stably transfected with PRAME […] and treated with 10^−7 M RA were resistant to RA-induced morphological differentiation and growth arrest. Apart from differentiating, a fraction of F9 cells treated with RA dies by apoptosis (Atencia et al, 1994). […] We conclude that PRAME expression confers resistance to RA-induced proliferation arrest, differentiation and apoptosis.
(§2) F9 cells were stably transfected with PRAME or empty vector and resistant cells were differentiated in 10^−7 M RA for 5 days. A375 cells were stably transfected with pRS-PRAME or empty vector and stable clones were cultured according to the 3T3 protocol. Medium with RA was refreshed every 24-48 hrs.

[4] = tested on: RARβ; assay: immunoblot for endogenous RARβ in F9 cells treated with RA; assay type: cell-based, mouse; conditions: 10^−7 M RA; parental and mock-transfected F9 cells, not PRAME-transfected
Description: (§3) Cells were lysed in Ripa buffer (50 mM Tris pH 8.0, 150 mM NaCl, 1% NP-40, 0.5% deoxycholic acid, and 0.1% SDS) supplemented with protease inhibitors (Complete; Roche) and […] PMSF and proteins were separated on 10-14% SDS-PAGE gels. Proteins were transferred to polyvinylidine difluoride membranes (Immobilon P, Millipore) and Western blots were probed with the indicated antibodies. For TAP (co-)immunoprecipitations cells were lysed in ELB buffer (0.25 M NaCl, 0.1% NP-40, 50 mM HEPES pH 7.3) supplemented with protease inhibitors and PMSF. Lysates were incubated with IgG-coated sepharose beads (Amersham) to immunoprecipitate TAP and TAP-PRAME (Rigaut et al 1999), indicated as anti-TAP, or with protein A beads and normal mouse serum (mock IP) for 2 hrs, washed, and separated on SDS-PAGE gels.

[5] = tested on: A375-PRAMEKD cells; assay: human melanoma xenograft model, A375-PRAMEKD tumours; assay type: in vivo, mouse; conditions: 5 mg/kg RA p.o. daily, nude mice, PRAMEKD melanomas, vs vehicle
Description: To examine the role of PRAME in RA-responsiveness in vivo, we used a human melanoma xenograft model. Nude mice were subcutaneously transplanted with parental A375 into one flank and A375-PRAMEKD cells in the opposite flank and the mice were treated p.o. daily with either 5 mg/kg RA or vehicle only, while tumor volumes were measured weekly.
Female 5-6 week old athymic BALB-C nude mice (nu/nu) were s.c. implanted with 1×10^6 cells bilaterally into the axial regions. Each mouse received A375-PRAMEKD cells in its right flank and control A375 cells in its left flank. Mice were randomized into treatment groups and treated with 5 mg/kg RA or vehicle (ethanol in sunflower oil) p.o. with a 20-gauge intragastric feeding tube daily. Tumor diameter was measured with calipers weekly. The pRS vector which was used to generate A375-PRAMEKD cells is a self-inactivating retroviral vector, to prevent re-activation and spreading of virus (Brummelkamp et al., 2002a; Brummelkamp et al., 2002b). The experiment was performed twice, with n=20 and n=10 mice and results were similar in both experiments.

[6] = tested on: RARβ and p21; assay: immunoblot of RA target genes RARβ and p21 in A375-PRAME^KD cells; assay type: cell-based, human; conditions: 5 μM RA
Description: as §3

[7] = tested on: A375-PRAME^KD cells; assay: proliferation of A375-PRAME^KD cells, 3T3 protocol; assay type: cell-based, human; conditions: 15 days, medium with 5 μM RA
Description: as §1, §2

[8] = tested on: histone H3 acetylation, p21; assay: immunoblot for acetyl-H3 and p21 in Ras^V12 MEFs treated with HDACi; assay type: cell-based, mouse; conditions: 1 μM PXD101 for 16 hrs; not prevented by PRAME or RARα expression
Description: as §3, with “Ras^V12 MEFs were also transduced with PRAME or RARα retrovirus and treated with 1 μM PXD101 for 16 hrs. Extracts were immunoblotted for acetyl-H3, p21, PRAME, RARα and CDK4 (control). […] Cells” for “Cells”

CC(/C=C/C(=O)NO)=C\[C@@H](C)C(=O)c1ccc(N(C)C)cc1 [Trichostatin A]
cell growth ([1]; Trichostatin A 0.1 μM): growth arrest

CC1=C(/C=C/C(C)=C/C=C/C(C)=C/C(=O)O)C(C)(C)CCC1 [RA, All-trans-retinoic acid]
p21 promoter-luciferase reporter activity [2]: activated | cleaved caspase 3 (apoptosis) [3]: apparent in vector controls | endogenous RARβ protein expression [4]: induced | tumor growth [5]: severely retarded | induction of RA target genes RARβ and p21 [6]: enhanced | proliferation rates [7]: significantly decreased proliferation rates, especially when cultured in the presence of RA

O=C(/C=C/c1cccc(S(=O)(=O)Nc2ccccc2)c1)NO [PXD101, N-hydroxy-3-(3-phenylsulfamoyl-phenyl)-acrylamide]
histone H3 acetylation [8]: increase | p21 expression [8]: induction | cell growth ([1]; 1 μM PXD101): growth arrest

From patent US8969544B2, “Combined use of PRAME inhibitors and HDAC inhibitors” (priority 2004, dated 2015)
